Source: patent publication US10959430B2, “Compositions and methods for repelling coleopterans” (ISCA TECHNOLOGIES, INC., priority 2015, dated 2021)

Columns and labels:
[1] = system: CBB (coffee berry borer, Hypothenemus hampei); assay: Dislodging of CBB from coffee berries in a sealed petri dish; type: in vivo; conditions: both male and female CBBs
From the text: Our testing involved application of approximately 0.2 g of SPLAT Verb in approximately a 6-inch petri dish. (SPLAT Verb is loaded with 10% verbenone by weight.) This area would correspond to 0.0000045ac of land; therefore, our field application rate would be approximately 44 kg of SPLAT Verb (4,400 g of verbenone) per acre. Coffee berries, commonly used to rear CBB, were placed in the petri dish. The 0.2 g of SPLAT Verb was introduced into the sealed petri dish. We then went on to measure the times when CBB dislodged or exited the berry. The number dislodged is a summation of the total dislodged at that point in time. Our data (as shown in Table 3) verifies that CBB exited their preferred host and, after dislodging, maintained high activity levels without re-entering the berries.

[2] = system: CBB; conditions: dosage and verbenone type not given in the study; cited from earlier work

SMILES	effect of exposure on male and female CBBs in the coffee berry [1]	response of CBB to path containing verbenone [2]
CC1=CC(=O)[C@H]2C[C@@H]1C2(C)C [(1S)-(−)-Verbenone]	dislodge from the coffee berry	
CC1=CC(=O)[C@@H]2C[C@H]1C2(C)C [verbenone]		unattractive
